From patent US9629816B2, “Small molecule therapeutic compounds targeting thioesterase deficiency disorders and methods of using the same” (The United States of America, as represented by the …, priority 2011, dated 2017)

Experiments:
PPT1-KO mice [1] = assay: Open field test, exploratory behavior of PPT1-KO mice; assay type: in vivo, mouse; conditions: 6-month and 8-month old PPT1-KO mice (FIG. 19E-F)
From the text: Since NtBuHA functionally mimics PPT1, the inventors tested 6-month and 8-month old wild-type, untreated- and NtBuHA-treated PPT1-KO mice for motor coordination and exploratory behavior. The Rotarod Performance Test, which measures parameters such as riding time (seconds) and/or endurance was used to measure motor coordination. The open field test was utilized to evaluate the exploratory behavior.

INCL lymphoblasts [2] = assay: Depletion of [35S]cysteine-labeled lipid thioesters / hydrolysis of S-acylated proteins in PPT1-deficient lymphoblasts; assay type: cell-based, human; conditions: lymphoblasts of nine NCL patients; 48 hours vs untreated cells (FIG. 8)
Procedure: (§1) Thus, this derivative was chosen for more extensive study of its ability to hydrolyze […] proteins, and to deplete lipid-extractable [^35S]cysteine thioesters from fibroblasts and lymphoblasts. INCL fibroblasts were obtained and cultured as described in Example 4. The cells were then labeled with [^35S]cysteine. Briefly, following incubation for six hours in medium lacking serum and cysteine/cystine, the cells were washed and then re-cultured for varying lengths of time in medium containing NtBuHA, with a change of medium every 12 hours. As controls, [^35S]cysteine-labeled cells were cultured in drug-free medium as well as medium containing 1M HA. Following incubation, cells were washed twice with cold PBS and then centrifuged at 2,250 g at 4° C. for 5 minutes. Lipid thioesters were then extracted from the cells and subject to analysis by high-performance thin layer chromatography. Briefly, the extracted fatty acyl esters were dissolved in chloroform:methanol (1:1) and an aliquot applied to a TLC plate and resolved using a mixture of chloroform:methanol:water (65:25:4). The plates were then dried and autoradiographs obtained.
The ability of NtBuHA to deplete [^35S]cysteine-thioester containing compounds was tested using [^35S]cysteine-labeled, immortalized lymphoblasts. […]

PPT1-KO mice [3] = assay: Western blot of ER-stress and oxidative-stress markers in brain lysates of PPT1-KO mice; assay type: in vivo, mouse
Procedure: Western blot analysis was performed as using standard methodology. Briefly 30 μg of protein was resolved in 4-12% Bis tris gel (Invitrogen) and electro-transferred in PVDF membrane. The membranes were blocked with 5% non fat dried milk for 1 hour at room temperature and were then probed overnight with primary antibody at 4 C. After washing the blots were incubated with horseradish peroxidase conjugated secondary antibody (Santacruz Biotechnology) for 1 hour at room temperature and developed using enhanced chemiluminescences detection reagents (Pierce). Primary antibodies used in this study were caspase-3, caspase-9 (cell signaling) SOD2, catalase, β-Actin (US Biologicals).
It has previously reported that endoplasmic reticulum (ER-) and oxidative-stress contribute to neuropathology in INCL patients. […] Therefore, the inventors sought to determine whether NtBuHA-treatment of PPT1-KO mice ameliorate the ER- and oxidative-stress in brain tissues of these mice. Accordingly, the levels of ER-stress markers Grp-78, Grp-94 and ATF6 were determined by Western blot analysis of brain lysates. […] Western blot analysis of brain lysates from NtBuHA-treated and untreated PPT1-KO mice was also performed to determine the levels of superoxide dismutase-2 (SOD2) and catalase, which increases with elevated oxidative-stress.

INCL fibroblasts [4] = assay: MTT viability of cultured INCL fibroblasts; assay type: cell-based, human; conditions: 48 hours of treatment; viability as percent of untreated control (FIG. 4A-C)
Procedure: Ten out of the twelve HA-derivative compounds listed in Table 1 were tested to determine whether they adversely affected the viability of cultured cells from INCL patients. […] Briefly, following treatment with HA-derivatives INCL cells were incubated with Thiazolyl Blue Tetrazolium […] for 4 hours at 37° C. Formazan crystals thus formed were dissolved in acidified isopropanol and absorption was measured at 570 nm. Viability was expressed as percent of untreated control.
Briefly, normal fibroblasts (GM 00498) were obtained from the Coriell Institute of Medical Research, USA. PPT1-deficient INCL fibroblasts were isolated from skin biopsy samples of INCL patients admitted to an ongoing clinical protocol (#01-CH-0086) approved by the Institutional Review Board (IRB) of the National Institute of Child Health and Human Development (NICHD) at the National Institute of Health (NIH). […] The fibroblasts were cultured in the presence or absence of varying concentrations of each of the HA-derivatives for 48 hours, after which the viability of the cells was determined using the MTT-Cell Viability Assay by T. Mossman, (Rapid colorimetric assay for cellular growth and survival. J. Immunol. Method. 65 (1983) 55-63).

INCL fibroblasts [5] = assay: Depletion of [35S]cysteine-labeled lipid thioesters in INCL fibroblasts; assay type: cell-based, human; conditions: treatment for 24 and 48 hours vs untreated control cells (FIG. 7)
Procedure: as §1

INCL lymphoblasts [6] = assay: H2O2-induced apoptosis in INCL lymphoblasts (annexin V, FACS); assay type: cell-based, human; conditions: 1 mM NtBuHA 12 hours
Procedure: To evaluate whether NtBuHA protects against oxidative stress-induced apoptosis in INCL lymphoblasts the cells were treated with 1 mM NtBuHA for 12 hours and then incubated with 500 μM H2O2 for 3 hours in presence or absence of NtBuHA (1 mM). Untreated INCL lymphoblasts were also treated with H2O2 for 3 hours. For the detection of apoptosis the cells were stained with annexin V using Apoptosis detection kit (Biovision) and analyzed by FACS (Guava EasyCyte Mini System, Millipore).
Moreover, in these cells antisense-mediated inhibition of PPT1 leads to increased apoptosis. […] In addition, increased neuronal apoptosis in the brain of PPT1-KO mice has also been reported. […] Thus, the inventors sought to determine whether the NtBuHA-treatment protects cultured immortalized INCL lymphoblasts from oxidative-stress mediated apoptosis. Cultured lymphoblasts from INCL patients were chosen because PPT1 is expressed in all tissues and PPT 1-deficiency in cultured lymphoblasts and fibroblasts from INCL patients show virtually identical pathological changes (accumulation of ceroid, GRODs and increased apoptosis) as are found in postmortem neuronal tissues from such patients. […] Apoptosis of the H2O2-treated cells was then quantitated by florescence activated cell sorting (FACS) analysis.

CC(C)(C)NO [NtBuHA, N-(tert-Butyl)hydroxylamine]
exploratory behavior (open field) (PPT1-KO mice [1]): retained near normal motor function (FIG. 19A-D) as well as exploratory behavior | intensity of [35S]cysteine-labeled lipid bands (INCL lymphoblasts [2]): clear reduction in the intensity | levels of SOD2 and catalase (PPT1-KO mice [3]; brain lysates vs untreated PPT1-KO mice (FIG. 14B)): significantly reduced the levels of both SOD2 and catalase | levels of ER-stress markers Grp-78, Grp-94 and ATF6 (PPT1-KO mice [3]; brain tissues (FIG. 14A)): levels of all three ER-stress markers were reduced | toxicity / viability of INCL cells (MTT) (INCL fibroblasts [4]): non-toxic | intensity of [35S]cysteine-labeled lipid extractable thioester compounds (INCL fibroblasts [5]): significantly reduced intensity | H2O2-induced apoptosis, pre- and co-treated cells (INCL lymphoblasts [6]; then 500 μM H2O2 3 hours in presence of NtBuHA (FIG. 15)): no alteration in apoptosis above the base level | H2O2-induced apoptosis, pretreated cells (INCL lymphoblasts [6]; then 500 μM H2O2 3 hours without NtBuHA (FIG. 15)): failed to induce apoptosis above the base level
